Results reported in US8603947B2, “(4-haloalkyl-3-thiobenzoyl)cyclohexanediones and use thereof as herbicides” (Bayer Cropscience AG, priority 2010, dated 2013).

Experiments:
Format in all cases: in vivo
[1] = test system: Pharbitis purpureum (PHBPU); test: Pre-emergence herbicidal action against weed plants; details: scored after 3 to 4 weeks
Text: (§1) 1. Pre-emergence Herbicidal Action Against Weed Plants Seeds or rhizome sections of mono- and dicotyledonous weed plants are set out in pots of 9 to 13 cm in diameter, in sandy loam soil, and are covered with soil. The herbicides, formulated as emulsifiable concentrates or dusts, are applied to the surface of the covering earth in the form of aqueous dispersions or suspensions or emulsions, at a water application rate of 300 to 800 l/ha (converted). The pots are then maintained under glass under optimum conditions for the further cultivation of the plants. After 3 to 4 weeks under optimum growth conditions under glass, the trial plants are scored for the effect of the compounds according to the invention in comparison to compounds disclosed in the prior art. […] [table]

[2] = test system: Viola tricolor (VIOTR); test: as above; details: scored after 3 to 4 weeks
Text: as §1

[3] = test system: Pharbitis purpureum (PHBPU); test: Post-emergence herbicidal action against weed plants; details: scored after 3 to 4 weeks
Procedure: (§2) [table] 2. Post-emergence Herbicidal Action Against Weed Plants Seeds of monocotyledonous and dicotyledonous weed plants are set out in cardboard pots in sandy loam soil, covered with soil, and cultivated under glass under good growth conditions. Two to three weeks after sowing, the trial plants are treated at the three-leaf stage. The compounds according to the invention, formulated as wettable powders or as emulsifiable concentrates, are sprayed onto the surface of the green parts of the plants, at a water application rate of 600 to 800 l/ha (converted). After the trial plants have stood for 3 to 4 weeks under optimum growth conditions under glass, the action of the compounds according to the invention is scored in comparison to compounds disclosed in the prior art.

[4] = test system: Setaria viridis (SETVI); test: as above; details: dose 80 g a.c./ha, scored after 3 to 4 weeks, Comparison Table 11
Procedure: as §2

[5] = test system: Viola tricolor (VIOTR); test: as above; details: dose 80 g a.c./ha, scored after 3 to 4 weeks, Comparison Table 11
Procedure: as §2

[6] = test system: Avena fatua (AVEFA); test: Pre-emergence herbicidal action against weed plants; details: dose 320 g a.c./ha, scored after 3 to 4 weeks, Comparison Table 4
Text: as §1

[7] = test system: Matricaria inodora (MATIN); test: as above; details: dose 320 g a.c./ha, scored after 3 to 4 weeks, Comparison Table 4
Text: as §1

[8] = test system: Setaria viridis (SETVI); test: as above; details: dose 80 g a.c./ha, scored after 3 to 4 weeks, Comparison Table 5
Text: as §1

[9] = test system: Alopecurus myosuroides (ALOMY); test: Post-emergence herbicidal action against weed plants; details: scored after 3 to 4 weeks
Procedure: as §2

[10] = test system: Amaranthus retroflexus (AMARE); test: as above; details: dose 80 g a.c./ha, scored after 3 to 4 weeks, Comparison Table 8
Procedure: as §2

[11] = test system: Echinochloa crus galli (ECHCG); test: as above; details: dose 80 g a.c./ha, scored after 3 to 4 weeks
Procedure: as §2

[12] = test system: Matricaria inodora (MATIN); test: as above; details: dose 80 g a.c./ha, scored after 3 to 4 weeks
Procedure: as §2

[13] = dose 80 g a.c./ha, Comparison Table 2
[14] = dose 80 g a.c./ha, Comparison Table 11
[15] = dose 320 g a.c./ha, Comparison Table 1
[16] = dose 320 g a.c./ha, Comparison Table 3
[17] = dose 320 g a.c./ha, Comparison Table 4
[18] = dose 80 g a.c./ha, Comparison Table 5
[19] = dose 80 g a.c./ha, Comparison Table 6
[20] = dose 80 g a.i./ha, Comparison Table 7
[21] = dose 80 g a.c./ha, Comparison Table 8
[22] = dose 80 g a.c./ha, Comparison Table 9
[23] = dose 80 g a.c./ha, Comparison Table 10

## CCn1ncc(C(=O)c2ccc(C(F)(F)F)c([S+](C)[O-])c2C)c1O (stereo not drawn)
[1]; [13]
  Herbicidal action against PHBPU: 0%
[2]; [13]
  Herbicidal action against VIOTR: 50%

## Cc1nn(C)c(O)c1C(=O)c1ccc(C(F)(F)F)c(S(C)(=O)=O)c1C
[3]; [14]
  Herbicidal action against PHBPU: 80%
[4]
  Herbicidal action against SETVI: 60%
[5]
  Herbicidal action against VIOTR: 80%

## Cc1c(C(=O)C2C(=O)C3CCC(C3)C2=O)ccc(C(F)(F)C(F)(F)F)c1[S+](C)[O-] (stereo not drawn) [drawing 13]
[1]; [15]
  Herbicidal action against PHBPU: 90%
[2]; [15]
  Herbicidal action against VIOTR: 100%

## Cc1c(C(=O)c2cnn(C)c2O)ccc(C(F)(F)F)c1[S+](C)[O-] (stereo not drawn) [drawing 14]
[1]; [15]
  Herbicidal action against PHBPU: 50%
[2]; [15]
  Herbicidal action against VIOTR: 90%

## Cc1c(C(=O)C2C(=O)C3CCC(C3)C2=O)ccc(C(F)(F)C(F)(F)F)c1[S+](C)[O-] (stereo not drawn) [drawing 15]
[1]; [13]
  Herbicidal action against PHBPU: 80%
[2]; [13]
  Herbicidal action against VIOTR: 100%

## Cc1c(C(=O)C2C(=O)C3CCC(C3)C2=O)ccc(C(F)(F)C(F)(F)F)c1[S+](C)[O-] (stereo not drawn) [drawing 17]
[1]; [16]
  Herbicidal action against PHBPU: 90%
[2]; [16]
  Herbicidal action against VIOTR: 100%

## Cc1nn(C)c(O)c1C(=O)c1ccc(C(F)(F)F)c([S+](C)[O-])c1C (stereo not drawn) [drawing 18]
[1]; [16]
  Herbicidal action against PHBPU: 60%
[2]; [16]
  Herbicidal action against VIOTR: 40%

## Cc1c(C(=O)C2C(=O)C3CCC(C3)C2=O)ccc(C(F)(F)C(F)(F)F)c1S(C)(=O)=O (stereo not drawn) [drawing 19]
[6]
  Herbicidal action against AVEFA: 80%
[7]
  Herbicidal action against MATIN: 100%
[1]; [17]
  Herbicidal action against PHBPU: 90%

## CCn1ncc(C(=O)c2ccc(C(F)(F)F)c(S(C)(=O)=O)c2C)c1O [drawing 20]
[6]
  Herbicidal action against AVEFA: 40%
[7]
  Herbicidal action against MATIN: 90%
[1]; [17]
  Herbicidal action against PHBPU: 50%

## Cc1c(C(=O)C2C(=O)C3CCC(C3)C2=O)ccc(C(F)(F)C(F)(F)F)c1S(C)(=O)=O (stereo not drawn) [drawing 21]
[8]
  Herbicidal action against SETVI: 100%
[2]; [18]
  Herbicidal action against VIOTR: 100%

## Cc1c(C(=O)c2cnn(C)c2O)ccc(C(F)(F)F)c1S(C)(=O)=O [drawing 22]
[8]
  Herbicidal action against SETVI: 60%
[2]; [18]
  Herbicidal action against VIOTR: 50%

## Cc1c(C(=O)C2C(=O)C3CCC(C3)C2=O)ccc(C(F)(F)C(F)(F)F)c1[S+](C)[O-] (stereo not drawn) [drawing 23]
[9]; [19]
  Herbicidal action against ALOMY: 90%
[3]; [19]
  Herbicidal action against PHBPU: 100%

## Cc1c(C(=O)c2cnn(C)c2O)ccc(C(F)(F)F)c1[S+](C)[O-] (stereo not drawn) [drawing 24]
[9]; [19]
  Herbicidal action against ALOMY: 60%
[3]; [19]
  Herbicidal action against PHBPU: 60%

## Cc1c(C(=O)C2C(=O)C3CCC(C3)C2=O)ccc(C(F)(F)C(F)(F)F)c1[S+](C)[O-] (stereo not drawn) [drawing 25]
[9]; [20]
  Herbicidal action against ALOMY: 90%
[3]; [20]
  Herbicidal action against PHBPU: 100%

## Cc1c(C(=O)c2cnn(C)c2O)ccc(C(F)(F)F)c1[S+](C)[O-] (stereo not drawn) [drawing 26]
[9]; [20]
  Herbicidal action against ALOMY: 60%
[3]; [20]
  Herbicidal action against PHBPU: 80%

## Cc1c(C(=O)C2C(=O)C3CCC(C3)C2=O)ccc(C(F)(F)C(F)(F)F)c1[S+](C)[O-] (stereo not drawn) [drawing 27]
[9]; [21]
  Herbicidal action against ALOMY: 90%
[10]
  Herbicidal action against AMARE: 100%
[3]; [21]
  Herbicidal action against PHBPU: 100%

## Cc1nn(C)c(O)c1C(=O)c1ccc(C(F)(F)F)c([S+](C)[O-])c1C (stereo not drawn) [drawing 28]
[9]; [21]
  Herbicidal action against ALOMY: 30%
[10]
  Herbicidal action against AMARE: 50%
[3]; [21]
  Herbicidal action against PHBPU: 50%

## Cc1c(C(=O)C2C(=O)C3CCC(C3)C2=O)ccc(C(F)(F)C(F)(F)F)c1S(C)(=O)=O (stereo not drawn) [drawing 29]
[11]; Comparison Table 9
  Herbicidal action against ECHCG: 100%
[12]; Comparison Table 9
  Herbicidal action against MATIN: 100%
[3]; [22]
  Herbicidal action against PHBPU: 90%

## Cc1c(C(=O)c2cnn(C)c2O)ccc(C(F)(F)F)c1S(C)(=O)=O [drawing 30]
[11]; Comparison Table 9
  Herbicidal action against ECHCG: 95%
[12]; Comparison Table 9
  Herbicidal action against MATIN: 55%
[3]; [22]
  Herbicidal action against PHBPU: 80%

## Cc1c(C(=O)C2C(=O)C3CCC(C3)C2=O)ccc(C(F)(F)C(F)(F)F)c1S(C)(=O)=O (stereo not drawn) [drawing 31]
[11]; Comparison Table 10
  Herbicidal action against ECHCG: 100%
[12]; Comparison Table 10
  Herbicidal action against MATIN: 100%
[3]; [23]
  Herbicidal action against PHBPU: 90%

## CCn1ncc(C(=O)c2ccc(C(F)(F)F)c(S(C)(=O)=O)c2C)c1O [drawing 32]
[11]; Comparison Table 10
  Herbicidal action against ECHCG: 90%
[12]; Comparison Table 10
  Herbicidal action against MATIN: 90%
[3]; [23]
  Herbicidal action against PHBPU: 40%

## Cc1c(C(=O)C2C(=O)C3CCC(C3)C2=O)ccc(C(F)(F)C(F)(F)F)c1S(C)(=O)=O (stereo not drawn) [drawing 33]
[3]; [14]
  Herbicidal action against PHBPU: 90%
[4]
  Herbicidal action against SETVI: 100%
[5]
  Herbicidal action against VIOTR: 100%
